In US20100204150A1, “USE OF A PEPTIDE AS A THERAPEUTIC AGENT” (priority 2007, published 2010):
Where no end group is shown, it is not given here. [ ]: non-standard residue; d: D form.

Experiments:
[1] = test system: HIV-1IIIB; experiment: HIV-1 antiviral assay in CEM-SS cells (MTS readout)
[2] = test system: Primary Human endothelial cells (HUVEC); experiment: Endothelial cell migration assay; type: cell-based; conditions: 10 micrograms per ml, 22 hours
Protocol: Thereafter, designated concentration of testing peptides was added in duplicate wells.

[3] = test system: hepatitis B virus (HBV) ayw strain; experiment: HBV assay in HepG2-2.2.15 cells (secreted HBV DNA, TaqMan PCR); type: cell-based; conditions: 10 micrograms per ml, six days, combination 0.95 mole peptide 1 and 1.05 mole peptide 2
From the text: HepG2-2.2.15 is a stable cell line containing the hepatitis B virus (HBV) ayw strain genome (ATCC Cat. No. CRL-11997). Antiviral compounds blocking any late step of viral replication such as transcription, translation, pregenome encapsidation, reverse transcription, particle assembly and release can be identified and characterized using this cell line. In this assay, an active compound will reduce the production of secreted HBV from cells, measured by utilizing real time quantitative PCR (TaqMan) assay to directly and accurately measure HBV DNA copies.
HepG2-2.2.15 cells were plated in 96-well microtiter plates. After 16-24 hours the confluent monolayer of HepG2-2.2.15 cells was washed and the medium was replaced with complete medium containing test peptides—10 micrograms per ml—in duplicate. […] Six days following the initial administration of the peptides, the cell culture supernatants was collected, treated with pronase and DNAse and then used in a real-time quantitative TaqMan PCR assay. The PCR-amplified HBV DNA was detected in real-time by monitoring increases in fluorescence signals that result from the exonucleolytic degradation of a quenched fluorescence probe molecule that hybridizes to the amplified HBV DNA. […] Antiviral activity was calculated from the reduction in HBV DNA levels (% virus control). […]

[4] = test system: Interleukin-2 (IL-2); experiment: Th1/Th2 cytokine profiling assay: IL-2; type: cell-based, mouse; conditions: 10 micrograms per ml; Ovalbumin-restimulated murine spleen cells; 72 hours
Protocol: (§1) On day 50, spleens of the mice were harvested (3 weeks after last boost with Ovalbumin). Cells were cultured (2×10^5/well in triplicate) and incubated with culture medium or test peptides—10 micrograms per ml—for 30 min. […] This kit can be used to measure Interleukin-2 (IL-2), Interleukin-4 (IL-4), Interleukin-5 (IL-5), Interferon-γ (IFN-γ), and Tumor Necrosis Factor-a (TNF-a) protein levels in a single sample. The kit performance has been optimized for analysis of physiologically relevant concentrations (μg/ml levels) of specific cytokine proteins in tissue culture supernatants and serum samples.

[5] = test system: HUVEC; experiment: Endothelial tube formation assay; type: cell-based, human; conditions: 10 micrograms per ml, 20 hours
From the text: Positive control was vehicle only.

[6] = test system: Interferon-γ (IFN-γ); experiment: Th1/Th2 cytokine profiling assay: IFN-γ; type: cell-based, mouse; conditions: 10 micrograms per ml; Ovalbumin-restimulated murine spleen cells; 72 hours
Protocol: as §1

[7] = test system: Tumor Necrosis Factor-a (TNF-a); experiment: Th1/Th2 cytokine profiling assay: TNF-alpha; type: cell-based, mouse; conditions: 10 micrograms per ml; Ovalbumin-restimulated murine spleen cells; 72 hours
Protocol: as §1

[8] = test system: Interleukin-5 (IL-5); experiment: Th1/Th2 cytokine profiling assay: IL-5; type: cell-based, mouse; conditions: 10 micrograms per ml; Ovalbumin-restimulated murine spleen cells; 72 hours
Protocol: as §1

[9] = test system: Interleukin-4 (IL-4); experiment: Th1/Th2 cytokine profiling assay: IL-4; type: cell-based, mouse; conditions: 10 micrograms per ml; Ovalbumin-restimulated murine spleen cells; 72 hours
Protocol: as §1

[10] = test system: HCMV strain AD169; experiment: HCMV plaque formation assay in MRC-5 cells; conditions: 10 micrograms per ml, 7-10 days

Compound | antiviral activity of positive control compounds (HIV-1) [1] | increase of the migration of endothelial cells [2] [%] | inhibition of HBV replication as compared to the virus control infection [3] [%] | increase of the production of IL-2 [4] [%] | increase of the tube formation of human endothelial cells [5] [%] | increase of the production of IFN-γ [6] [%] | change of the production of TNF-alpha [7] | change of the production of IL-5 [8] | increase of the production of IL-4 [9] [%] | inhibition of HCMV plaque formation as compared to the virus control experiment [10] | inhibition of the migration of human endothelial cells [2] [%] | decrease of the production of IFN-γ [6] [%] | decrease of the production of IL-5 [8] [%] | change of the production of IL-4 [9]
Cc1cn([C@H]2C[C@H](N=[N+]=[N-])[C@@H](CO)O2)c(=O)[nH]c1=O [AZT] | expected levels of antiviral activity | – | – | – | – | – | – | – | – | – | – | – | – | –
CC(C)(C)NC(=O)[C@@H]1CN(Cc2cccnc2)CCN1C[C@@H](O)C[C@@H](Cc1ccccc1)C(=O)N[C@H]1c2ccccc2C[C@H]1O [indinavir] | expected levels of antiviral activity | – | – | – | – | – | – | – | – | – | – | – | – | –
Ac-Arg-Phe-Met-Trp-Met-Arg-NH2 (Ac-RFMWMR-NH2) [Peptide 2] | – | 15 | 26.3 | 56.5 | 4 | 118.6 | did not significantly change | did not significantly change | 56.2 | 2.9% | – | – | – | –
HPFHL[dL]VY-OH [Peptide 1] | – | – | 24.3 | 82.1 | 2 | – | did not significantly change | – | – | did not inhibit | 26 | 43.3 | 34.5 | did not significantly change
